The source of these data is article doi:10.1101/2024.08.13.607785v1 (biorxiv, 2024).

Molecules are shown by their SMILES.

Design in all cases: species or system mixed lysate of K562, MV4-11, THP-1, NCI-H1155
The target in assay [1] is Tyrosine-protein kinase Fyn ; FYN ; P06241 (Homo sapiens, UniProt P06241). The following applies: DIA-MS residual binding; binder.
For assay [2], the target named is Serine/threonine-protein kinase 25 ; STK25 ; O00506 (Homo sapiens, UniProt O00506). To be noted: binder.
Assay [3] has as its target Mitogen-activated protein kinase kinase kinase kinase 5 ; MAP4K5 ; Q9Y4K4 (Homo sapiens, UniProt Q9Y4K4). To be noted: DIA-MS residual binding; binder.
In assay [4] the target is Ephrin type-A receptor 1 ; EPHA1 ; P21709 (Homo sapiens, UniProt P21709). The following applies: DIA-MS residual binding; binder.
Sequence of Ephrin type-A receptor 1 ; EPHA1 ; P21709 (P21709 whole entry): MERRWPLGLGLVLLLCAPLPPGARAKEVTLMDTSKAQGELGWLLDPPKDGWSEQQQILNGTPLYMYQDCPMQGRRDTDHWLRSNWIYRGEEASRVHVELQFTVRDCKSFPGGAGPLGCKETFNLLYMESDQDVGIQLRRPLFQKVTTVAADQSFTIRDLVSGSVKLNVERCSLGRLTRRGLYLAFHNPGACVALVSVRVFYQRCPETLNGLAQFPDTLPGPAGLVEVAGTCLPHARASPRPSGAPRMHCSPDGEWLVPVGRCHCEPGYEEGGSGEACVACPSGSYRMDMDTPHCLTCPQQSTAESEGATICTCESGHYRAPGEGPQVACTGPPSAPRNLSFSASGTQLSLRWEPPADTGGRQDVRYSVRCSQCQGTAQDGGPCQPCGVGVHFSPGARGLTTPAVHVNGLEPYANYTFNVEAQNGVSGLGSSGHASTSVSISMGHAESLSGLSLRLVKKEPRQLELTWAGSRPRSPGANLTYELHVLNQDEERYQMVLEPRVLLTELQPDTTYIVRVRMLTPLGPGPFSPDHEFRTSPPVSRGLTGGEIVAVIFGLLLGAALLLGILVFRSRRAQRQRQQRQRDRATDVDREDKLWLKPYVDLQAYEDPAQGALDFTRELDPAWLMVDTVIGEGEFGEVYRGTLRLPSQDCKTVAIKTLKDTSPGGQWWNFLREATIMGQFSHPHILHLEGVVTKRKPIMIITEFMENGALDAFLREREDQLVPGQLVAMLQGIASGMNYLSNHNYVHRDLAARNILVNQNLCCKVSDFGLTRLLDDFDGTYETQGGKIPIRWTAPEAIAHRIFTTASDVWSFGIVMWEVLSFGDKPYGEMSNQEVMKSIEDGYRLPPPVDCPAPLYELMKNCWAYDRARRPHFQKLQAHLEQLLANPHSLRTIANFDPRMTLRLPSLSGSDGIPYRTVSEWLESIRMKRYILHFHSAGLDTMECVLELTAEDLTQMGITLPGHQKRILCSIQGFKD
Assay [5] addresses Tyrosine-protein kinase Fyn ; FYN-2 ; P06241 (Homo sapiens, UniProt P06241). To be noted: DIA-MS residual binding; binder.
The target of assay [6] is Mitogen-activated protein kinase 14 ; MAPK14 ; Q16539 (Homo sapiens, UniProt Q16539). The following applies: DIA-MS residual binding; binder.
Sequence of Mitogen-activated protein kinase 14 ; MAPK14 ; Q16539 (Q16539 whole entry): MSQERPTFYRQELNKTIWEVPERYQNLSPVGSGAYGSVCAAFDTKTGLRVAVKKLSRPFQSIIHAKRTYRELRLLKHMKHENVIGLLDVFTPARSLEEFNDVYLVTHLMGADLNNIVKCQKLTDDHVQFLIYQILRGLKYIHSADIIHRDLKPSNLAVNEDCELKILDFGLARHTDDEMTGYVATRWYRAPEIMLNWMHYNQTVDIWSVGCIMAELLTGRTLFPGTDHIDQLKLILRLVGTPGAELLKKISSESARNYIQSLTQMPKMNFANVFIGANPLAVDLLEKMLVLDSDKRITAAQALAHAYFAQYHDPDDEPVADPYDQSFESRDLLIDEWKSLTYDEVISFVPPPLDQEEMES
For assay [7], the target named is Tyrosine-protein kinase Yes ; YES1 ; P07947 (Homo sapiens, UniProt P07947). The following applies: binder.
For assay [8], the target named is T1, Cyclin-G-associated kinase ; GAK ; O14976 (Homo sapiens, UniProt O14976).
T1 sequence (O14976 1-1311): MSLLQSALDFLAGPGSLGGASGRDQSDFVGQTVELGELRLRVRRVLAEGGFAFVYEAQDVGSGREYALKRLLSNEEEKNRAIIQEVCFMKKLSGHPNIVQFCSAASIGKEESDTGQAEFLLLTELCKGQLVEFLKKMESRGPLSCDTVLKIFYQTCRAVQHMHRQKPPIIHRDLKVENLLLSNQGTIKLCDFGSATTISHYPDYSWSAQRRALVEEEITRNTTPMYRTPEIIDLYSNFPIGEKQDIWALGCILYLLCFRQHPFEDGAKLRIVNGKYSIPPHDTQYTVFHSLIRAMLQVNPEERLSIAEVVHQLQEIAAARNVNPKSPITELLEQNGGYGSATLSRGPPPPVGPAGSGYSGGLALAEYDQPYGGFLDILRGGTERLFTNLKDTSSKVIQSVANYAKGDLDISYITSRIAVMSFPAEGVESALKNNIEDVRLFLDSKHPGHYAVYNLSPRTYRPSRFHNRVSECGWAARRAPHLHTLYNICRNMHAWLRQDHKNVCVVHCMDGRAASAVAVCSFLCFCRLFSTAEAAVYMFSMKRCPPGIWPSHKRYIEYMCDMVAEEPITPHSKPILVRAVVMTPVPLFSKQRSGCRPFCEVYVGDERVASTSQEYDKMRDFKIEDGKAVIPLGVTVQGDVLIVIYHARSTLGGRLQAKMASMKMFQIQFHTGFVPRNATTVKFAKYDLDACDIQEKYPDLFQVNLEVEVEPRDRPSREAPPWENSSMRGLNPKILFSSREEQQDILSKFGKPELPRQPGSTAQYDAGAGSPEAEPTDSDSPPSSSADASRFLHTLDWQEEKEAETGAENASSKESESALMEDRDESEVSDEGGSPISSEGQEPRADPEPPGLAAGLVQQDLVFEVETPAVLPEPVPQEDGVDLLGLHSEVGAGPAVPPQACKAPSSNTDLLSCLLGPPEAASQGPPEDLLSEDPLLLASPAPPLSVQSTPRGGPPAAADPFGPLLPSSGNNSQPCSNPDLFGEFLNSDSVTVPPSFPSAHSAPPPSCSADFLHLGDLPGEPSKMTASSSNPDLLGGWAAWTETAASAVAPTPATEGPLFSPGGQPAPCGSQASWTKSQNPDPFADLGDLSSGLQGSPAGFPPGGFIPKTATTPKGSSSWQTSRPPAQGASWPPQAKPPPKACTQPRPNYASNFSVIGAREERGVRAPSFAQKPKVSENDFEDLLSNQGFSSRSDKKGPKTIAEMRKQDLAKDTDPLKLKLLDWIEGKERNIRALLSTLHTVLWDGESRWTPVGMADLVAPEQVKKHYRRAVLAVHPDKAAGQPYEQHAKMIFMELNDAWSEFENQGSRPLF
To be noted: DIA-MS residual binding; binder.

Assay [9] has as its target Mitogen-activated protein kinase 14 ; MAPK14-2 ; Q16539-2 (Homo sapiens, UniProt Q16539). The following applies: DIA-MS residual binding; binder.
The target of assay [10] is Tyrosine-protein kinase HCK ; HCK ; P08631 (Homo sapiens, UniProt P08631). To be noted: DIA-MS residual binding; binder.
Sequence of Tyrosine-protein kinase HCK ; HCK ; P08631 (P08631 whole entry): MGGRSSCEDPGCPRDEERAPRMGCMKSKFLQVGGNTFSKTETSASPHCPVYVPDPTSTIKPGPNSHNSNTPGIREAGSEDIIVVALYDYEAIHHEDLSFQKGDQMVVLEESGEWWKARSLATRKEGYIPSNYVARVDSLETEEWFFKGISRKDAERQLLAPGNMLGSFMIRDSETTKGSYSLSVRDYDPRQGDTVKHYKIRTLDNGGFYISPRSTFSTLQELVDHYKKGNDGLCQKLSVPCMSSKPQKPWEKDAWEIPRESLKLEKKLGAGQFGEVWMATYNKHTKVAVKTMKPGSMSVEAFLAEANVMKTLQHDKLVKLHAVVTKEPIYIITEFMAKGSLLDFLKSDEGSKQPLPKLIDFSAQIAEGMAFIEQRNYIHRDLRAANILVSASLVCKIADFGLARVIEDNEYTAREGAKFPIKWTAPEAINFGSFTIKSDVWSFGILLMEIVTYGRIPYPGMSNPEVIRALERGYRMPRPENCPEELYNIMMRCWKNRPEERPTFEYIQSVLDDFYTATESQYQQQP
Assay [11] has as its target Receptor-interacting serine/threonine-protein kinase 2 ; RIPK2 ; O43353 (Homo sapiens, UniProt O43353). To be noted: DIA-MS residual binding; binder.
For assay [12], the target named is Integrin-linked protein kinase ; ILK ; Q13418 (Homo sapiens, UniProt Q13418). To be noted: DIA-MS residual binding; binder.
Sequence of Integrin-linked protein kinase ; ILK ; Q13418 (Q13418 whole entry): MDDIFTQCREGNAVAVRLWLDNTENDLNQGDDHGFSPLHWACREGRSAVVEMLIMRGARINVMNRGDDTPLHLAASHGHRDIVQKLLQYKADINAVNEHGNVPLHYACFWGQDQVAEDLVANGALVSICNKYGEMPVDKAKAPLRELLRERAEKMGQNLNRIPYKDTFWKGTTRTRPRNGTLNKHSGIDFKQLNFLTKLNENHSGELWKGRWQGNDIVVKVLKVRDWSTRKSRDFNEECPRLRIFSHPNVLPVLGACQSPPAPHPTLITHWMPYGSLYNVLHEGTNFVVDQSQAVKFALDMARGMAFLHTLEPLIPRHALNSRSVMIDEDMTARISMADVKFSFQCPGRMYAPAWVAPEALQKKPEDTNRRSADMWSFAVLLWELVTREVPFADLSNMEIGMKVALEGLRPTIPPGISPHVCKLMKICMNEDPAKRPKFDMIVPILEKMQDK

Sequence of Mitogen-activated protein kinase 14 ; MAPK14-2 ; Q16539-2 (Q16539 whole entry): as the sequence (Q16539 whole entry) above
Sequence of Tyrosine-protein kinase Fyn ; FYN-2 ; P06241 (P06241 whole entry): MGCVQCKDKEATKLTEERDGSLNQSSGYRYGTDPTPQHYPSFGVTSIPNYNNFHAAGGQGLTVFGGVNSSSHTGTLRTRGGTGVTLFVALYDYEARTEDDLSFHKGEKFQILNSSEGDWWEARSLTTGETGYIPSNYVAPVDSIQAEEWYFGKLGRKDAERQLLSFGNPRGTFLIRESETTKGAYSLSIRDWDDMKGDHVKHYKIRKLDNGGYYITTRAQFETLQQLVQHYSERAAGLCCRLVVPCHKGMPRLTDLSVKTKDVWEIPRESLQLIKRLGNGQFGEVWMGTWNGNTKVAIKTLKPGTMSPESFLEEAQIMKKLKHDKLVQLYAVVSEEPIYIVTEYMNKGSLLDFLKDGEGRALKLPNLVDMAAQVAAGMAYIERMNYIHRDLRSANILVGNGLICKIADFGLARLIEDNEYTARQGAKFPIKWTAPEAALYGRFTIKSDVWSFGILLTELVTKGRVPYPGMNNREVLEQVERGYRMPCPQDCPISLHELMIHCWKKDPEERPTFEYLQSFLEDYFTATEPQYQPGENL
Sequence of Tyrosine-protein kinase Fyn ; FYN ; P06241 (P06241 whole entry): as above
Sequence of Mitogen-activated protein kinase kinase kinase kinase 5 ; MAP4K5 ; Q9Y4K4 (Q9Y4K4 whole entry): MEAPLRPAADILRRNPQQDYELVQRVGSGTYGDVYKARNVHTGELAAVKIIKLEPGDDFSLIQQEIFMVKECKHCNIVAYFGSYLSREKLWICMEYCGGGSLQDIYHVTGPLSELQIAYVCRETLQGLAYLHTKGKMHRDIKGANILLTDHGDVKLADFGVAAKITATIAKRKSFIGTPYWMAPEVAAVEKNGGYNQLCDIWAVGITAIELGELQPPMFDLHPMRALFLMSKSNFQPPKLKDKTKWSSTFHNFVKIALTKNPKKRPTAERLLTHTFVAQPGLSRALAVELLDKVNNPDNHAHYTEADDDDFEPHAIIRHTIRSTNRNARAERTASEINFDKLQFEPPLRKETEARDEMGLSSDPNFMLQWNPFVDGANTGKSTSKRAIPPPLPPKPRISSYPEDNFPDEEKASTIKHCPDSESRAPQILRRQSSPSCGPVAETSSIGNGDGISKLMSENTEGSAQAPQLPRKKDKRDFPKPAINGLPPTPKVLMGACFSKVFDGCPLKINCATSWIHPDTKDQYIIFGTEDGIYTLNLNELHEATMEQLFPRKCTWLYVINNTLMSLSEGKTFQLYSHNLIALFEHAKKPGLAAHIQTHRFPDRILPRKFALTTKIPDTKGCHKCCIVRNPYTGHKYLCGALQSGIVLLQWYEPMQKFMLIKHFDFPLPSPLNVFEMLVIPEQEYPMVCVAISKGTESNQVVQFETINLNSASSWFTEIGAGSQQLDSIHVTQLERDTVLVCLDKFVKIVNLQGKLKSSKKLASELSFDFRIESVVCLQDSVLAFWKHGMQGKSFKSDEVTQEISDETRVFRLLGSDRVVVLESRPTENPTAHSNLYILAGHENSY
Sequence of Receptor-interacting serine/threonine-protein kinase 2 ; RIPK2 ; O43353 (O43353 whole entry, one chain of several): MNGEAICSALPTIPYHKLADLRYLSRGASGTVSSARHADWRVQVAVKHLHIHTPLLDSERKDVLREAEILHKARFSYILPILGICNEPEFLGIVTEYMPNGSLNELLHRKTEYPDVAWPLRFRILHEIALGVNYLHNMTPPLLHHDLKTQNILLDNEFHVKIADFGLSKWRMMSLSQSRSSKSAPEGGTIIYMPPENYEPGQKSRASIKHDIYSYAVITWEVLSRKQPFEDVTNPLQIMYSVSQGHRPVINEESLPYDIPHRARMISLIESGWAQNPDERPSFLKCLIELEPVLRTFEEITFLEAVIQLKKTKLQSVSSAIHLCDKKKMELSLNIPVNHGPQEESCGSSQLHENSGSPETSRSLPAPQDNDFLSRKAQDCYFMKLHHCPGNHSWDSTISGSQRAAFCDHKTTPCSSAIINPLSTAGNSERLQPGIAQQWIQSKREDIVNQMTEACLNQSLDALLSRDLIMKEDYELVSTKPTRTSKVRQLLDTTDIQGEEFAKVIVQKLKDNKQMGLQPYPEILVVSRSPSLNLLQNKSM

Regarding `Cc1nc(Nc2ncc(C(=O)Nc3c(C)cccc3Cl)s2)cc(N2CCN(CCO)CC2)n1` [dasatinib], the “DIA-MS / % Intensity (30 µM/DMSO)” value in assay [1] is listed as 1.145%; in assay [2] it was 52%; in [3], 28.36%; in assay [4], 39.55%; in assay [5], 2.543%; in [6], 32.28%. Further, the “DIA-MS / % Intensity (30 µM/DMSO)” value is 2.565% in assay [7]; 4.611% in [8]; 35.75% in [9]; 2.086% in [10]; 2.357% in [11]; 38.96% in assay [12].
